The subject of the assay is human primary T-cells, IL-2 stimulated proliferation (JAK-1 and JAK-3 dependent; reported as JAK3 activity). The experiment in a line: Human primary T-cell proliferation stimulated by IL-2 (Example 3). Format: cell-based. As to conditions: tested under conditions described in Example 3 (IL-2 stimulated human primary T-cell proliferation), read-out: ability to inhibit JAK3 activity, IC50 range (Table V). In a few lines: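 Peripheral-blood human T-cells pre-activated via TCR/CD28, IL-2-starved overnight, then cultured 72 h at 37 °C with compound in Yssel's medium containing IL-2 (80 U/mL in cell suspension). Proliferation read as viable-cell ATP by CellTiter-Glo luminescence; reduction versus control taken as JAK pathway inhibition.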

Where a name gives a salt, the structure may show the parent alone. Read-outs that look alike come from different tables or passages of the source. Some results are limits rather than exact numbers.

In general, IC50 refers to the concentration at which inhibition is half-maximal.

For the compound `CN(c1ccc(Nc2ncc(F)c(Nc3ccc4c(c3)oc(=O)n4C)n2)cc1)S(C)(=O)=O` [Compound I-97, N2-((4-methylsulfonyl-N-methylamino)phenyl)-N4-(3-methyl-2-oxo-2,3-dihydrobenzo[d]oxazol-6-yl)-5-fluoropyrimidine-2,4-diamine], the IC50 is more than 10000 nM.
`CC(=O)N1CCN(c2ccc(Nc3ncc(C)c(Nc4ccc5oc(=O)[nH]c5c4)n3)cc2)CC1` [Compound I-343, N2-[4-(4-acetyl)piperazino]phenyl-5-methyl-N4-(2-oxo-2,3-dihydro-1,3-benzoxazol-5-yl)-2,4-pyrimidinediamine]: the IC50 is less than 500 nM.
Consider `Cc1cnc(Nc2ccc3c(c2)C=CCN(C)C3=O)nc1Nc1ccc2oc(=O)[nH]c2c1` [IV-19, (Z)-5-(5-methyl-2-(2-methyl-1-oxo-2,3-dihydro-1H-benzo[c]azepin-7-ylamino)pyrimidin-4-ylamino)benzo[d]oxazol-2(3H)-one], for which the IC50 (Homo sapiens, T-cell) is less than 500 nM.
Still for that read-out and setting: the value for `CCC(=O)n1c(=O)oc2ccc(Nc3nc(Nc4ccc(C(N)=O)cc4)ncc3C)cc21` [Compound I-145, 4-[5-Methyl-4-(2-oxo-3-propionyl-2,3-dihydro-benzooxazol-5-ylamino)-pyrimidin-2-ylamino]-benzamide] was less than 500 nM.
Regarding `COc1cc(Nc2ncc(C)c(Nc3ccc4oc(=O)[nH]c4c3)n2)cc(OC)c1` [Compound I-280, N2-(3,5-dimethoxy)phenyl-5-methyl-N4-(2-oxo-2,3-dihydro-1,3-benzoxazol-5-yl)-2,4-pyrimidinediamine], the IC50 was less than 500 nM.
Turning to `Cc1cnc(Nc2cccc(S(C)(=O)=O)c2)nc1Nc1ccc2c(c1)oc(=O)n2C` [Compound I-65, N2-((3-methylsulfonyl)phenyl)-N4-(3-methyl-2-oxo-2,3-dihydrobenzo[d]oxazol-6-yl)-5-methylpyrimidine-2,4-diamine], the IC50 was less than 500 nM.
As for `Cc1cnc(Nc2cc(F)cc(C(F)(F)F)c2)nc1Nc1ccc2oc(=O)[nH]c2c1` [Compound I-162, 5-[2-(3-Fluoro-5-trifluoromethyl-phenylamino)-5-methyl-pyrimidin-4-ylamino]-3H-benzooxazol-2-one triflouroacetate salt], the IC50 is more than 10000 nM.
The same measure, in the same setting: under `Cc1cnc(Nc2cccc(S(N)(=O)=O)c2)nc1Nc1ccc2oc(=O)n(C)c2c1` [Compound I-67, N2-((3-aminosulfonyl)phenyl)-N4-(3-methyl-2-oxo-2,3-dihydrobenzo[d]oxazol-5-yl)-5-methylpyrimidine-2,4-diamine] stands less than 500 nM.
For the compound `CNC(C)c1cc(Nc2ncc(C)c(Nc3ccc4oc(=O)[nH]c4c3)n2)cc(C(F)(F)F)c1` (centres unmarked) [Compound I-457, 5-(5-methyl-2-(3-(1-(methylamino)ethyl)-5-(trifluoromethyl)phenylamino)pyrimidin-4-ylamino)benzo[d]oxazol-2(3H)-one], the IC50 (Homo sapiens, T-cell) is less than 500 nM.
With `Cc1cnc(Nc2ccc(-c3cccnc3)cc2)nc1Nc1ccc2oc(=O)[nH]c2c1` [Compound I-291, 5-methyl-N4-(2-oxo-2,3-dihydro-1,3-benzoxazol-5-yl)-N2-[4-(pyridin-3-yl)]phenyl-2,4-pyrimidinediamine], the IC50 was less than 500 nM.
Regarding `Cc1cc(Nc2ncc(C)c(Nc3ccc4oc(=O)[nH]c4c3)n2)cc(OC(F)F)c1` [Compound I-516, N2-(3-difluoromethoxy-5-methyl)phenyl-5-methyl-N4-(2-oxo-2,3-dihydro-1,3-benzoxazol-5-yl)-2,4-pyrimidinediamine], the half-maximal inhibitory concentration (IC50) was less than 500 nM.
Consider `Cc1cnc(Nc2cccc(Br)c2)nc1Nc1ccc2oc(=O)[nH]c2c1` [Compound I-175, 5-[2-(3-Bromo-phenylamino)-5-methyl-pyrimidin-4-ylamino]-3H-benzooxazol-2-one], for which the IC50 (Homo sapiens, T-cell) is less than 500 nM.
`CNC(=O)c1cc(Nc2ncc(C)c(Nc3ccc4oc(=O)[nH]c4c3)n2)ccc1N1CCN(C)CC1` [Compound I-323, 5-methyl-N2-[3-methylaminocarbonyl-4-(4-methylpiperazino)]phenyl-N4-(2-oxo-2,3-dihydro-1,3-benzoxazol-5-yl)-2,4-pyrimidinediamine]: the IC50 was less than 500 nM.
In the case of `Cc1ccc(Nc2ncc(C)c(Nc3ccc4oc(=O)[nH]c4c3)n2)cc1C(F)(F)F` [Compound I-154, 5-[5-Methyl-2-(4-methyl-3-trifluoromethyl-phenylamino)-pyrimidin-4-ylamino]-3H-benzooxazol-2-one], the IC50 (Homo sapiens, T-cell) was less than 500 nM.
As to `Cc1cnc(Nc2cc(F)c(OC(F)F)c(F)c2)nc1Nc1ccc2oc(=O)[nH]c2c1` [Compound I-388, N2-(3,5-difluoro-4-difluoromethoxy)phenyl-5-methyl-N4-(2-oxo-2,3-dihydro-1,3-benzoxazol-5-yl)-2,4-pyrimidinediamine], the IC50 was less than 500 nM.
On to `COC(=O)c1ccc(Nc2ncc(C)c(Nc3ccc4oc(=O)[nH]c4c3)n2)cc1` [Compound I-125, 4-[5-Methyl-4-(2-oxo-2,3-dihydro-benzooxazol-5-ylamino)-pyrimidin-2-ylamino]-benzoic acid methyl ester], for which, where the note is “Homo sapiens, T-cell”, the IC50 is less than 500 nM.
Turning to `Cc1cc(Nc2ncc(C)c(Nc3ccc4oc(=O)[nH]c4c3)n2)cc(OC(F)(F)F)c1` [Compound I-379, 5-methyl-N2-(3-methyl-5-trifluoromethoxy)phenyl-N4-(2-oxo-2,3-dihydro-1,3-benzoxazol-5-yl)-2,4-pyrimidinediamine], the IC50 was less than 500 nM.
Turning to `Cc1cnc(Nc2ccc(N3CCCN(C)CC3)nc2)nc1Nc1ccc2oc(=O)[nH]c2c1` [II-3, N4-(benzo[d]oxazol-2(3H)-on-5-yl)-N2-(6-(4-methyl-1,4-diazepan-1-yl)pyridin-3-yl)-5-methylpyrimidine-2,4-diamine], the IC50 (Homo sapiens, T-cell) is less than 500 nM.
Still for that read-out and setting: the value for `Cc1cnc(Nc2ccc(F)c(-c3ccncc3)c2)nc1Nc1ccc2oc(=O)[nH]c2c1` [Compound I-471, 5-(2-(4-fluoro-3-(pyridin-4-yl)phenylamino)-5-methylpyrimidin-4-ylamino)benzo[d]oxazol-2(3H)-one] was less than 500 nM; that for `COc1cc(Nc2ncc(C)c(Nc3ccc4oc(=O)[nH]c4c3)n2)cc2ccccc12` [IV-55, 5-[2-(4-Methoxy-naphthalen-2-ylamino)-5-methyl-pyrimidin-4-ylamino]-3H-benzooxazol-2-one] was less than 500 nM.
The same measure, in the same setting: under `Cc1cnc(Nc2ccc(C#N)cc2)nc1Nc1ccc2oc(=O)[nH]c2c1` [Compound I-27, N4-(benzo[d]oxazol-2(3H)-on-5-yl)-N2-(4-cyanophenyl)-5-methylpyrimidine-2,4-diamine] stands less than 500 nM; under `COc1ccc(Nc2ncc(C)c(Nc3ccc4oc(=O)[nH]c4c3)n2)cc1COC(C)C` [Compound I-422, 5-(2-(3-(isopropoxymethyl)-4-methoxyphenylamino)-5-methylpyrimidin-4-ylamino)benzo[d]oxazol-2(3H)-one], less than 500 nM.
On to `Cc1cnc(Nc2ccc(OCC(=O)OC(C)C)cc2)nc1Nc1ccc2oc(=O)[nH]c2c1` [Compound I-317, N2-[4-(isopropoxycarbonylmethoxy)]phenyl-5-methyl-N4-(2-oxo-2,3-dihydro-1,3-benzoxazol-5-yl)-2,4-pyrimidinediamine], for which the IC50 was less than 500 nM.
Regarding `Cc1cnc(Nc2ccccc2Cl)nc1Nc1ccc2oc(=O)[nH]c2c1` [Compound I-520, 5-(2-(2-chlorophenylamino)-5-methylpyrimidin-4-ylamino)benzo[d]oxazol-2(3H)-one], for the setting “Homo sapiens, T-cell”, the IC50 lay within 500 to 5000 nM.
As for `COc1cc(Nc2ncc(C)c(Nc3ccc4oc(=O)[nH]c4c3)n2)cc(C(F)(F)F)c1OC` [Compound I-485, N2-(3,4-dimethoxy-5-trifluoromethyl)phenyl-5-methyl-N4-(2-oxo-2,3-dihydro-1,3-benzoxazol-5-yl)-2,4-pyrimidinediamine], the IC50 is less than 500 nM.
Turning to `Cc1cnc(Nc2cc(C(F)(F)F)cc(C(F)(F)F)c2)nc1Nc1ccc2oc(=O)[nH]c2c1` [Compound I-169, 5-[2-(3,5-Bis-trifluoromethyl-phenylamino)-5-methyl-pyrimidin-4-ylamino]-3H-benzooxazol-2-one], the IC50 (Homo sapiens, T-cell) is less than 500 nM.
Take `Cc1cnc(Nc2cccc(S(C)(=O)=O)c2)nc1Nc1ccc2c(c1)n(C)c(=O)n2C` [Compound I-36, N4-(1,3-dimethylbenzimidazolin-2-on-5-yl)-N2-((3-methylsulfonyl)phenyl)-5-methylpyrimidine-2,4-diamine]: the IC50 was less than 500 nM.
`Cc1cnc(Nc2cccc(C(F)(F)F)c2)nc1Nc1ccc2oc(=O)[nH]c2c1` [Compound I-158, 5-[5-Methyl-2-(3-trifluoromethyl-phenylamino)-pyrimidin-4-ylamino]-3H-benzooxazol-2-one]: under “Homo sapiens, T-cell”, the concentration for half-maximal inhibition (IC50) was less than 500 nM.
For the compound `Cc1cnc(Nc2ccc(N3CCOCC3)nc2)nc1Nc1cc(F)c2oc(=O)[nH]c2c1` [II-76, 7-fluoro-5-(5-methyl-2-(6-morpholinopyridin-3-ylamino)pyrimidin-4-ylamino)benzo[d]oxazol-2(3H)-one], the IC50 (Homo sapiens, T-cell) was less than 500 nM.
In the case of `COc1cccc(Nc2ncc(C)c(Nc3ccc4oc(=O)[nH]c4c3)n2)c1` [Compound I-337, N2-(3-methoxy)phenyl-5-methyl-N4-(2-oxo-2,3-dihydro-1,3-benzoxazol-5-yl)-2,4-pyrimidinediamine], the IC50 is less than 500 nM.
For `COc1cc(Nc2ncc(C)c(Nc3ccc4oc(=O)[nH]c4c3)n2)cc(C(C)O)c1` (centres unmarked) [Compound I-423, 5-(2-(3-(1-hydroxyethyl)-5-methoxyphenylamino)-5-methylpyrimidin-4-ylamino)benzo[d]oxazol-2(3H)-one], the IC50 (Homo sapiens, T-cell) is less than 500 nM.
With `Cc1cnc(Nc2ccc(N3CCC(NC(=O)C(C)(C)C)C3)nc2)nc1Nc1ccc2oc(=O)[nH]c2c1` (centres unmarked) [II-102, N-(1-(5-(5-methyl-4-(2-oxo-2,3-dihydrobenzo[c]oxazol-5-ylamino)pyrimidin-2-ylamino)pyridin-2-yl)pyrrolidin-3-yl)pivalamide], the IC50 was less than 500 nM.

(Values after patent US10005767B2, “Compositions and methods for inhibition of the JAK pathway” (Rigel Pharmaceuticals, Inc., priority 2009, dated 2018).)
